PubChem BioAssay AID449750 (Broad Institute, 2010)
Active and inactive are the calls of the source. How the calls were made is not given here.

Assay: non-covalent RecA intein splicing inhibitors, dose response, biochemical, cell-free, fluorescence, secondary screen (AID 449750)

SMILES	AC50
O=C1C(Cl)=C(NCCN2CCCCC2)C(=O)c2ccccc21	13.3 µM
O=C(O)c1ccc2c3c(ncnc13)-c1ccccc1C2=O	7.47 µM
CCOC(=O)c1c(OCC)[nH]c2c1cc(O)c1ccccc12	32.1 µM
N#CC1=C(N)Oc2n[nH]c(-c3cccs3)c2C1c1ccoc1 (stereo not drawn)	> 38 µM (inactive)
COC(CNC(=O)c1ccc2c3c(onc13)-c1ccccc1C2=O)OC	> 38 µM (inactive)
O=C(NNC(=O)c1ccc2ccccc2c1O)c1ccccc1Cl	> 38 µM (inactive)
CC1=NN(c2ccccc2)C(=O)C1=C(C)C	15.9 µM
COc1cc(/C=N/NC(=O)CC2(C)OCCCO2)ccc1OCc1ccccc1	> 38 µM (inactive)
CCCCCCCOC(=O)c1ccc(OC(=O)c2cccnc2)cc1	4.17 µM
COc1cc(/C=C(\C#N)C(=O)Nc2ccc3c(c2)OCCO3)ccc1O	> 38 µM (inactive)
CCCNC(=O)c1nnsc1S(=O)c1ccc(Cl)cc1 (stereo not drawn)	32.9 µM
O=C(NC1C(=O)NNC1c1ccc(Cl)cc1)c1ccc(F)cc1 (stereo not drawn)	> 38 µM (inactive)
Cc1ccc(-n2nc(C)c3c2OC(N)=C(C#N)C3c2ccco2)cc1 (stereo not drawn)	12.9 µM
Cc1cccc(S(=O)(=O)C(C#N)c2nc3ccccc3nc2N2CCCC2)c1 (stereo not drawn)	> 38 µM (inactive)
Cc1nn(CCc2nn[nH]n2)c2nc(-c3ccc(C4CCCCC4)cc3)cc(C(F)(F)F)c12	24.6 µM
CCOC(=O)C1CCN(Cc2cc(C(C)C)c(O)c(C(C)C)c2)CC1	> 38 µM (inactive)
O=Cc1sc(=O)n(Cc2cccc(C(=O)O)c2)c1Cl	> 12 µM (inactive)
CCO/C=C1/C(=O)N(C)C(=O)c2cc(OC)ccc21	> 38 µM (inactive)
CN(C(=O)c1ccc(S(=O)(=O)c2cccc(Cl)c2)c([N+](=O)[O-])c1)C1CCCCC1	13.7 µM
O=C(N/N=C/c1ccc(-c2ccccc2[N+](=O)[O-])o1)[C@H]1C[C@@H]1c1ccccc1	9.01 µM
COc1ccc(C(C[N+](=O)[O-])c2c(C)[nH]n(-c3ccccc3)c2=O)cc1 (stereo not drawn)	2.8 µM
CCOC(=O)Cc1c(C)c2c(C)[nH]nc2oc1=O	> 38 µM (inactive)
Cc1ccc(-c2[nH]nc3c2C(C)C(C#N)=C(N)O3)cc1 (stereo not drawn)	> 38 µM (inactive)
O=C(OCn1ncc(Cl)c(Cl)c1=O)c1cccc(C(F)(F)F)c1	12.9 µM
O=S(=O)(Nc1cc2nc3ccccc3nc2n1Cc1ccccc1)c1ccc(Cl)cc1	5.18 µM
Nn1cnnc1N/N=C/c1ccc(Cl)c([N+](=O)[O-])c1	> 38 µM (inactive)
Cc1cc(C)cc(OC(=O)CS(=O)c2ccc(C(F)(F)F)cc2[N+](=O)[O-])c1 (stereo not drawn)	> 38 µM (inactive)

SMILES	AC50
CCOC(=O)c1nn(-c2ccc(C)cc2)c(=O)c2c(N)scc12	> 38 µM (inactive)
CCc1cccc(NC(=O)CSCc2cc(=O)[nH][nH]2)c1	27.7 µM
Oc1cc(O)c2c(c1)O[C@H](c1ccc(O)c(O)c1)[C@H](O)C2	> 38 µM (inactive)
O=c1c(Cl)c(Cl)cnn1Cc1ccccc1Cl	36.8 µM
Nc1nc(CCl)nc(Nc2ccc3ccccc3c2)n1	15.7 µM
O=C(Nc1ncc([N+](=O)[O-])s1)c1ccco1	> 38 µM (inactive)
CC(=O)NC1C(=O)N(CCN2CCOCC2)c2ccc(Cl)cc21 (stereo not drawn)	34.1 µM
CCOC(=O)c1nn(-c2ccc(OC)cc2)c(=O)c2c(N)scc12	> 38 µM (inactive)
Cc1nn(-c2ccccc2)c2c1C1(C(=O)N3c4c(cccc41)C(C)CC3(C)C)C(C#N)=C(N)O2 (stereo not drawn)	23.9 µM
COc1ccccc1-c1cc(C(F)(F)F)nc(S(=O)(=O)CCCC(=O)N2CCOCC2)n1	13.6 µM
CC1=NN(c2ccccc2)C(=O)/C1=C/c1ccc(Cl)cc1	4.65 µM
N=c1c2c(ncn1Cc1ccco1)Oc1ccc3ccccc3c1C2c1ccccc1 (stereo not drawn)	13.1 µM
CCNC(=O)c1ccccc1-c1nc(-c2ccccc2)no1	> 38 µM (inactive)
O=C(Nc1ccccc1)Nc1ccc(O)c2ccccc12	14.4 µM
COc1ccc(/C=C(/C#N)C(=O)Nc2ccc(O)cc2)cc1C(=O)O	> 38 µM (inactive)
Cc1cccc(CS(=O)(=O)c2ncc(Cl)c(C(=O)Nc3c(C)cccc3C)n2)c1	> 38 µM (inactive)
CCc1cccc(CC)c1NC(=O)/C(C#N)=C/c1ccccc1C(F)(F)F	11.6 µM
O=c1[nH]c(Nc2ccccn2)cc2ccccc12	> 38 µM (inactive)
COC(=O)CC1=NN(c2nc(C)cc(C)n2)C(=O)C1	> 38 µM (inactive)
CCn1c(COc2cccc3ccccc23)nnc1SCC(N)=O	> 38 µM (inactive)
Cc1ccc(S(=O)(=O)c2c(N)n(CCC(C)C)c3nc4ccccc4nc23)cc1	5.3 µM
O=[N+]([O-])c1cc(S(=O)(=O)C(F)(F)F)ccc1Sc1nc2ccccc2[nH]1	16 µM
CCOc1ccccc1Oc1coc2cc(OC(=O)c3ccco3)ccc2c1=O	> 38 µM (inactive)
COc1ccc(N/C=C2\CCc3ccccc3C2=O)cc1	> 38 µM (inactive)
N#C/C(=C\c1cc(Cl)c(OCc2ccc(Cl)cc2)c(Cl)c1)C(N)=O	9.11 µM
CSCCC1C(C#N)=C(N)Oc2n[nH]c(-c3cccs3)c21 (stereo not drawn)	11.4 µM
